The source of these data is patent publication US20240083857A1, “2-Methyl-Quinazolines” (Bayer Pharma Aktiengesellschaft, priority 2017, published 2024).

Assay [1] has as its target K-Ras^G12C : hSOS1 interaction (Homo sapiens, UniProt Q07889). The assay is described as follows: Biochemical assay 1: K-Ras^G12C interaction assay with hSOS1 (HTRF). The format is binding. The following applies: for IC50: E-notation values, unit inferred, read-out: Assay 1 (KRAS-SOS interaction) IC50; for inhibition at 20 µM: read-out: Assay 1 (KRAS-SOS Interaction) activity expressed as % inhibition at 20 μM.

Assay [2] deals with human SOS1 (loading of human K-Ras^G12C-GDP with fluorescent GTP-analog) (Homo sapiens, UniProt Q07889). The assay is described as follows: Biochemical assay 3: K-Ras^G12C activation assay by hSOS1 (HTRF). On the technique in general: In TR-FRET formats the signal depends on donor and acceptor labels being close together.
The mark [3] stands for this setting: E-notation values, unit inferred, read-out: Assay 3 (KRAS-Activation) IC50.

Like-named read-outs stand apart in the source and are kept apart here.

Broadly, the IC50 is the concentration that inhibits the measured activity by half. `Cc1nc(NC(C)c2ccc(Br)s2)c2cc(N3CCN(C)C(=O)C3)ccc2n1` (stereo not shown) [Example 434, 4-(4-{[1-(5-bromothiophen-2-yl)ethyl]amino}-2-methylquinazolin-6-yl)-1-methylpiperazin-2-one]: the IC50 turned out to be 2.84 µM in assay [1] and 2.81 µM in assay [2] (setting [3]).
As for `Cc1nc(NC(C)c2ccc(Br)s2)c2cc(NCCN3CCOCC3)ccc2n1` (stereo not drawn) [Example 425, N4-[l-(5-bromo-2-thienyl)ethyl]-2-methyl-N6-[2-(morpholin-4-yl)ethyl]quinazoline-4,6-diamine], the figures for the IC50 in assay [1] and in assay [2] (setting [3]) were 5.82 µM and 11.2 µM, respectively.
Turning to `Cc1nc(N[C@H](C)c2cccc(Cl)c2)c2cc(C3CC3)ccc2n1` [Example 407, N-[(1R)-1-(3-chlorophenyl)ethyl]-6-cyclopropyl-2-methylquinazolin-4-amine], the IC50 in assay [1] was determined as 1.25 µM; in assay [2] (setting [3]) it was 2.14 µM.
`Cc1nc(NC(C)c2ccc(-c3ccccc3CN(C)C)s2)c2cc(N3CCN(Cc4cccnc4)CC3)ccc2n1` (stereo not shown) [Example 426, N-[1-(5-{2-[(dimethylamino)methyl]phenyl}thiophen-2-yl)ethyl]-2-methyl-6-[4-(pyridin-3-ylmethyl)piperazin-1-yl]quinazolin-4-amine]: the IC50 in assay [1] was found to be 0.0332 µM; in assay [2] (setting [3]), 0.0315 µM.
Regarding `COc1cc2nc(C)nc(NC(C)c3cccc(OCc4ccccc4)c3)c2cc1OC` (stereo not shown) [Example 389, N-{1-[3-(benzyloxy)phenyl]ethyl}-6,7-dimethoxy-2-methylquinazolin-4-amine], the IC50 in assay [1] is 6.69 µM; in assay [2] (setting [3]), 16.9 µM.
As for `COC(=O)c1ccc2nc(C)nc(N[C@H](C)c3cccc(Cl)c3)c2c1` [Example 371, methyl 4-{[(1R)-1-(3-chlorophenyl)ethyl]amino}-2-methylquinazoline-6-carboxylate], the IC50 in assay [1] came out at 1.89 µM; in assay [2] (setting [3]), 3.35 µM.
The inhibition is the drop in the measured response relative to a control, in per cent. On to `COc1cc2nc(C)nc(NC(C)c3ccc(-c4ccccc4CN4CCN(C(=O)OC(C)(C)C)CC4)s3)c2cc1OC` (stereo not shown) [Example 306, tert-butyl 4-[2-(5-{1-[(6,7-dimethoxy-2-methylquinazolin-4-yl)amino]ethyl}thiophen-2-yl)benzyl]piperazine-1-carboxylate], for which the inhibition at 20 µM in assay [1] turned out to be 45%. The half-inhibitory concentration (IC50) in assay [2] (no GTP, read-out: Assay 3 (KRAS-Activation by SOS no GTP) activity expressed as IC50) amounted to 7.94 µM.
In the case of `Cc1nc(NC(C)c2ccc(Br)s2)c2cc(N3CCN(Cc4cccnc4)CC3)ccc2n1` (stereo not shown) [Example 424, N-[1-(5-bromothiophen-2-yl)ethyl]-2-methyl-6-[4-(pyridin-3-ylmethyl)piperazin-1-yl]quinazolin-4-amine], the IC50 in assay [1] was 1.59 µM; in assay [2] (setting [3]), 3.76 µM.
For the molecule `COc1cc2nc(C)nc(NC(C)c3cc(C)c(-c4ccccc4CN(C)CCO)s3)c2cc1OC` (stereo not shown) [Example 401, 2-{[2-(5-{1-[(6,7-dimethoxy-2-methylquinazolin-4-yl)amino]ethyl}-3-methyl-2-thienyl)benzyl](methyl)amino}ethanol], the IC50 came out at 0.0763 µM in assay [1] and 0.0823 µM in assay [2] (setting [3]).
For the molecule `COc1cc2nc(C)nc(NC(C)c3c(C)ccc4[nH]ncc34)c2cc1OC` (stereo not shown) [Example 7, 6,7-dimethoxy-2-methyl-N-[1-(5-methyl-1H-indazol-4-yl)ethyl]quinazolin-4-amine], the inhibition at 20 µM was 44% in assay [1] and 33% in assay [2] (read-out: Assay 3 (KRAS-Activation by SOS no GTP) activity expressed as % inhibition at 20 μM, no GTP, at 20 μM).
In the case of `COc1cc2nc(C)nc(NC(C)c3ccc(-c4ccccc4CN(C)C)s3)c2cc1OC` (single isomer, unassigned) [Example 391, N-[1-(5-{2-[(dimethylamino)methyl]phenyl}thiophen-2-yl)ethyl]-6,7-dimethoxy-2-methylquinazolin-4-amine], the IC50 in assay [1] was 0.0155 µM; in assay [2] (setting [3]), 0.0379 µM.
For the molecule `COc1cc2nc(C)nc(NC(C)c3ccc(-c4ccccc4C(O)c4ccccc4)s3)c2cc1OC` (stereo not shown) [Example 374, [2-(5-{1-[(6,7-dimethoxy-2-methylquinazolin-4-yl)amino]ethyl}thiophen-2-yl)-phenyl](phenyl)methanol], the values for the 50% inhibitory concentration (IC50) in assay [1] and in assay [2] (setting [3]) were 1.6 µM and 6.5 µM, respectively.
Consider `COc1ccc(-c2ccc(C(C)Nc3nc(C)nc4cc(OC)c(OC)cc34)s2)c(CN(C)C)c1` (stereo not shown) [Example 439, N-[1-(5-{2-[(dimethylamino)methyl]-4-methoxyphenyl}thiophen-2-yl)ethyl]-6,7-dimethoxy-2-methylquinazolin-4-amine], for which the figures for the IC50 in assay [1] and in assay [2] (setting [3]) were 0.277 µM and 0.229 µM, respectively.
For the molecule `CNCc1ccccc1-c1sc(C(C)Nc2nc(C)nc3cc(OC)c(OC)cc23)cc1C` (stereo not shown) [Example 402, 6,7-di methoxy-2-methyl-N-[1-(4-methyl-5-{2-[(methylamino)methyl]phenyl}thiophen-2-yl)ethyl]quinazolin-4-amine], the IC50 in assay [1] came to 0.0828 µM; in assay [2] (setting [3]) it was 0.0981 µM.
For the molecule `COCC(=O)NCc1cc(F)ccc1-c1ccc(C(C)Nc2nc(C)nc3cc(OC)c(OC)cc23)s1` (stereo not shown) [Example 383, N-[2-(5-{1-[(6,7-dimethoxy-2-methylquinazolin-4-yl)amino]ethyl}thiophen-2-yl)-5-fluorobenzyl]-2-methoxyacetamide], the IC50 in assay [1] stood at 0.984 µM; in assay [2] (setting [3]), 5.11 µM.
On to `COc1cc2nc(C)nc(NC(C)c3ccc(-c4ccc(O)nc4)s3)c2cc1OC` (stereo not shown) [Example 395, 5-(5-{1-[(6,7-dimethoxy-2-methylquinazolin-4-yl)amino]ethyl}thiophen-2-yl)pyridin-2-ol], for which the IC50 was determined as 0.984 µM in assay [1] and 1.02 µM in assay [2] (setting [3]).
In the case of `COc1cc2nc(C)nc(NC(C)c3ccc(-c4cccc(Cl)c4CN)s3)c2cc1OC` (stereo not shown) [Example 397, N-[1-{5-[2-(aminomethyl)-3-chlorophenyl]thiophen-2-yl}ethyl]-6,7-dimethoxy-2-methylquinazolin-4-amine], the IC50 in assay [1] came out at 0.297 µM; in assay [2] (setting [3]), 0.249 µM.
For the molecule `Cc1nc(NC(C)c2ccc(Br)s2)c2cc(N3CCC(N(C)C)C3)ccc2n1` (stereo not shown) [Example 414, N-[1-(5-bromothiophen-2-yl)ethyl]-6-[3-(dimethylamino)pyrrolidin-1-yl]-2-methylquinazolin-4-amine], the IC50 in assay [1] was 1.38 µM; in assay [2] (setting [3]), 1.46 µM.
In the case of `COc1cc2nc(C)nc(NC(C)c3ccc(-c4ccccc4CN(C)CC#N)s3)c2cc1OC` (stereo not shown) [Example 456, {[2-(5-{1-[(6,7-dimethoxy-2-methylquinazolin-4-yl)amino]ethyl}thiophen-2-yl)benzyl](methyl)amino}acetonitrile], the IC50 in assay [1] amounted to 0.162 µM; in assay [2] (setting [3]), 0.287 µM.
On to `Cc1nc(NC(C)c2ccc(-c3ccccc3CN(C)C)s2)c2cc(N3CCN(C)CC3)ccc2n1` (stereo not shown) [Example 417, N-[1-(5-{2-[(dimethylamino)methyl]phenyl}thiophen-2-yl)ethyl]-2-methyl-6-(4-methylpiperazin-1-yl)quinazolin-4-amine], for which the figures for the concentration for half-maximal inhibition (IC50) in assay [1] and in assay [2] (setting [3]) were 0.0455 µM and 0.0353 µM, respectively.
As to `COc1cc2nc(C)nc(NC(C)c3ccc(-c4ccccc4CNC4CC4)s3)c2cc1OC` (stereo not shown) [Example 370, N-[1-(5-{2-[(cyclopropylamino)methyl]phenyl}thiophen-2-yl)ethyl]-6,7-dimethoxy-2-methylquinazolin-4-amine], the results for the IC50 in assay [1] and in assay [2] (setting [3]) were 0.27 µM and 0.363 µM, respectively.
Take `COc1cc2nc(C)nc(NC(C)c3ccc(-c4ccccc4C(O)C(F)(F)F)s3)c2cc1OC` (stereo not shown) [Example 380, 1-[2-(5-{1-[(6,7-dimethoxy-2-methylquinazolin-4-yl)amino]ethyl}thiophen-2-yl)phenyl]-2,2,2-trifluoroethanol]: the figures for the half-inhibitory concentration (IC50) in assay [1] and in assay [2] (setting [3]) were 0.937 µM and 2.74 µM, respectively.
As to `COc1cc2nc(C)nc(NC(C)c3sc(-c4ccccc4CN)cc3Cl)c2cc1OC` (stereo not shown) [Example 437, N-[1-{5-[2-(aminomethyl)phenyl]-3-chlorothiophen-2-yl}ethyl]-6,7-dimethoxy-2-methylquinazolin-4-amine], the figures for the IC50 in assay [1] and in assay [2] (setting [3]) were 0.145 µM and 0.16 µM, respectively.
As to `Cc1nc(NC(C)c2ccc(-c3ccccc3CN(C)C)s2)c2cc(N3CCN(C)C(=O)C3)ccc2n1` (stereo not shown) [Example 435, 4-(4-{[1-(5-{2-[(dimethylamino)methyl]phenyl}thiophen-2-yl)ethyl]amino}-2-methylquinazolin-6-yl)-1-methylpiperazin-2-one], the IC50 in assay [1] amounted to 0.0844 µM; in assay [2] (setting [3]), 0.0686 µM.
For `Cc1nc(NC(C)c2ccc(-c3ccccc3CN(C)C)s2)c2cc(N)ccc2n1` (stereo not shown) [Example 423, N4-[1-(5-{2-[(dimethylamino)methyl]phenyl}-2-thienyl)ethyl]-2-methylquinazoline-4,6-diamine], the figures for the IC50 in assay [1] and in assay [2] (setting [3]) were 0.204 µM and 0.303 µM, respectively.
As to `COCCNCc1ccccc1-c1ccc(C(C)Nc2nc(C)nc3cc(OC)c(OC)cc23)s1` (stereo not shown) [Example 369, 6,7-dimethoxy-N-{1-[5-(2-{[(2-methoxyethyl)amino]methyl}phenyl)thiophen-2-yl]ethyl}-2-methylquinazolin-4-amine], the results for the concentration for half-maximal inhibition (IC50) in assay [1] and in assay [2] (setting [3]) were 0.0995 µM and 0.169 µM, respectively.
With `Cc1nc(NC(C)c2ccc(-c3ccccc3CN(C)C)s2)c2cc(NCCN3CCOCC3)ccc2n1` (stereo not shown) [Example 433, N4-[1-(5-{2-[(dimethylamino)methyl]phenyl}-2-thienyl)ethyl]-2-methyl-N6-[2-(morpholin-4-yl)ethyl]quinazoline-4,6-diamine], the IC50 in assay [1] was 0.0771 µM; in assay [2] (setting [3]), 0.0769 µM.
For the molecule `COc1cc2nc(C)nc(NC(C)c3cc(Cl)c(Br)s3)c2cc1OC` (stereo not shown) [Example 432, N-[1-(5-bromo-4-chlorothiophen-2-yl)ethyl]-6,7-dimethoxy-2-methylquinazolin-4-amine], the concentration for half-maximal inhibition (IC50) is 16.7 µM in assay [1] and greater than 20 µM in assay [2] (setting [3]).
Take `COc1cc2nc(C)nc(NC(C)c3cc(C)c(-c4ccccc4CN(C)C)s3)c2cc1OC` (stereo not shown) [Example 400, N-[1-(5-{2-[(dimethylamino)methyl]phenyl}-4-methyl-2-thienyl)ethyl]-6,7-dimethoxy-2-methylquinazolin-4-amine]: the IC50 in assay [1] is 0.0787 µM; in assay [2] (setting [3]), 0.0766 µM.
